Experimental data published in patent US12628827B2, “Isoxazoline compounds and their use as pest control agents” (PI INDUSTRIES LIMITED, priority 2020, dated 2026).

What was measured:
Format in all cases: in vivo
[1] = system: Tetranychus urticae; experiment: Tetranychus urticae leaf dip method; details: foliar, French bean leaves, third instar nymphs, 72 h after release, dead + moribund vs untreated control, read-out: percent mortality
Procedure: (§1) The leaf dip method was used for testing, wherein the required quantity of the compound was weighed and dissolved in a tube containing solvent solution. The tube was put on a vortex at 2000 rpm for 90 min for proper mixing, then, diluted with 0.01% Triton-X solution to the desired test concentration. French bean leaves were dipped in the compound solution for 10 seconds, shade dried for 20 min and then placed, with the abaxial side of the leaf up, in single cells of a bio-assay tray containing 4 mL of a solidified 1% agar-agar solution. Known numbers of third instar nymphs were released into the cell with the treated leaf and the cell was covered with a perforated lid for better aeration. The trays were kept in a plant growth chamber at a temperature of 25° C. and a relative humidity of 70%. Observations on dead, moribund and alive nymphs were recorded 72 h after the release. Percent mortality was calculated by combining dead and moribund nymphs and comparing the result with the one of the untreated control. The compounds 1 2 26 38 40 46 47 48 and 49 recorded ≥70 percent mortality @ 300 PPM.

[2] = system: Amrasca biguttulla biguttulla; experiment: Amrasca biguttulla biguttulla leaf dip method; details: Solanum melongena, foliar, brinjal leaves, second instar nymphs, 72 h after release, dead + moribund vs untreated control, read-out: percent mortality
Procedure: as §1, with “concentration. Brinjal” for “concentration. French bean”, “of second” for “of third”, “compounds 1,” for “compounds 1”, “2 and” for “2 26 38”, “40” for “40 46 47 48 and 49”

[3] = system: Scirtothrips dorsalis; experiment: Scirtothrips dorsalis leaf dip method; details: foliar, capsicum leaves, second instar nymphs, 72 h after release, dead + moribund vs untreated control, read-out: percent mortality
Procedure: as §1, with “concentration. Capsicum” for “concentration. French bean”, “of second” for “of third”, “compounds 1,” for “compounds 1”, “2 and” for “2 26 38”, “40” for “40 46 47 48 and 49”

[4] = system: Plutella xylostella; experiment: Plutella xylostella leaf dip method; details: foliar, cabbage leaves, second instar larvae, 72 h after release, dead + moribund vs untreated control, read-out: per cent mortality
Procedure: The leaf dip method was used for testing, wherein the required quantity of the compound was weighed and dissolved in a tube containing solvent solution. The tube was put on a vortex at 2000 rpm for 90 min for proper mixing, then, diluted with a 0.01% Triton-X solution to the desired test concentration. Cabbage leaves were dipped in the compound solution for 10 seconds, shade dried for 20 min and then transferred into the cells of bioassay trays. A single second instar larva was released into each cell and the tray was covered with a lid. The bio-assay trays were then kept under laboratory conditions at a temperature of 25° C. and a relative humidity of 70%. Observations on dead, moribund and alive larvae were recorded 72 h after the release. Percent mortality was calculated by combining dead and moribund larvae and comparing the result to the one of the untreated control. The compounds, […]

| SMILES | mortality at 300 ppm [1] [%] | mortality at 300 ppm [2] [%] | mortality at 300 ppm [3] [%] | mortality at 300 ppm [4] [%] |
| --- | --- | --- | --- | --- |
| Cc1cc(C2=NOC(c3cc(Cl)c(F)c(Cl)c3)(C(F)(F)F)C2)ccc1C(=O)Nc1nc(C(F)(F)F)n(C)n1 (stereo not shown) [Compound 1, 4-(5-(3,5-dichloro-4-fluorophenyl)-5-(trifluoromethyl)-4,5-dihydroisoxazol-3-yl)-2-methyl-N-(1-methyl-5-(trifluoromethyl)-1H-1,2,4-triazol-3-yl)benzamide] | ≥ 70 | ≥ 70 | ≥ 70 |  |
| Cc1cc(C2=NOC(c3cc(Cl)cc(Cl)c3)(C(F)(F)F)C2)ccc1C(=O)Nc1nc(C(F)(F)F)n(C)n1 (stereo not shown) [Compound 2, 4-(5-(3,5-dichlorophenyl)-5-(trifluoromethyl)-4,5-dihydroisoxazol-3-yl)-2-methyl-N-(1-methyl-5-(trifluoromethyl)-1H-1,2,4-triazol-3-yl)benzamide] | ≥ 70 | ≥ 70 | ≥ 70 |  |
| Cc1cc(C2=NOC(c3cc(Cl)c(F)c(Cl)c3)(C(F)(F)F)C2)ccc1C(=O)Nc1nc(C(C)C)n(C)n1 (stereo not shown) [Compound 26, 4-(5-(3,5-dichloro-4-fluorophenyl)-5-(trifluoromethyl)-4,5-dihydroisoxazol-3-yl)-N-(5-isopropyl-1-methyl-1H-1,2,4-triazol-3-yl)-2-methylbenzamide] | ≥ 70 |  |  |  |
| Cc1cc(C2=NOC(c3cc(Cl)c(F)c(Cl)c3)(C(F)(F)F)C2)ccc1C(=O)N(CC(F)(F)F)c1nc(C(C)C)n(CC(F)(F)F)n1 (stereo not shown) [Compound 31, 4-(5-(3,5-dichloro-4-fluorophenyl)-5-(trifluoromethyl)-4,5-dihydroisoxazol-3-yl)-N-(5-isopropyl-1-(2,2,2-trifluoroethyl)-1H-1,2,4-triazol-3-yl)-2-methyl-N-(2,2,2-trifluoroethyl)benzamide] |  |  |  | ≥ 70 |
| CCc1nc(NC(=O)c2ccc(C3=NOC(c4cc(Cl)cc(Cl)c4)(C(F)(F)F)C3)cc2C)nn1CC (stereo not shown) [Compound 38, 4-(5-(3,5-dichlorophenyl)-5-(trifluoromethyl)-4,5-dihydroisoxazol-3-yl)-N-(1,5-diethyl-1H-1,2,4-triazol-3-yl)-2-methylbenzamide] | ≥ 70 |  |  |  |
| Cc1cc(C2=NOC(c3cc(Cl)c(F)c(Cl)c3)(C(F)(F)F)C2)ccc1C(=O)N(C)c1nc(C(F)(F)F)n(C)n1 (stereo not shown) [Compound 40, 4-(5-(3,5-dichloro-4-fluorophenyl)-5-(trifluoromethyl)-4,5-dihydroisoxazol-3-yl)-N,2-dimethyl-N-(1-methyl-5-(trifluoromethyl)-1H-1,2,4-triazol-3-yl)benzamide] | ≥ 70 | ≥ 70 | ≥ 70 |  |
| Cc1cc(C2=NOC(c3cc(Cl)c(F)c(Cl)c3)(C(F)(F)F)C2)ccc1C(=O)N(C)c1nc(C(C)(F)F)n(C)n1 (stereo not shown) [Compound 46, 4-(5-(3,5-dichloro-4-fluorophenyl)-5-(trifluoromethyl)-4,5-dihydroisoxazol-3-yl)-N-(5-(1,1-difluoroethyl)-1-methyl-1H-1,2,4-triazol-3-yl)-N,2-dimethylbenzamide] | ≥ 70 |  |  |  |
| Cc1cc(C2=NOC(c3cc(Cl)c(F)c(Cl)c3)(C(F)(F)F)C2)ccc1C(=O)Nc1nc(C(C)(F)F)n(C)n1 (stereo not shown) [Compound 47, 4-(5-(3,5-dichloro-4-fluorophenyl)-5-(trifluoromethyl)-4,5-dihydroisoxazol-3-yl)-N-(5-(1,1-difluoroethyl)-1-methyl-1H-1,2,4-triazol-3-yl)-2-methylbenzamide] | ≥ 70 |  |  |  |
| Cc1cc(C2=NOC(c3cc(Cl)cc(Cl)c3)(C(F)(F)F)C2)ccc1C(=O)Nc1nc(C(C)(F)F)n(C)n1 (stereo not shown) [Compound 48, 4-(5-(3,5-dichlorophenyl)-5-(trifluoromethyl)-4,5-dihydroisoxazol-3-yl)-N-(5-(1,1-difluoroethyl)-1-methyl-1H-1,2,4-triazol-3-yl)-2-methylbenzamide] | ≥ 70 |  |  |  |
| Cc1cc(C2=NOC(c3cc(Cl)cc(Cl)c3)(C(F)(F)F)C2)ccc1C(=O)N(C)c1nc(C(C)(F)F)n(C)n1 (stereo not shown) [Compound 49, 4-(5-(3,5-dichlorophenyl)-5-(trifluoromethyl)-4,5-dihydroisoxazol-3-yl)-N-(5-(1,1-difluoroethyl)-1-methyl-1H-1,2,4-triazol-3-yl)-N,2-dimethylbenzamide] | ≥ 70 |  |  |  |
| Cc1cc(C2=NOC(c3cc(Cl)cc(Cl)c3)(C(F)(F)F)C2)ccc1C(=O)N(CC(F)(F)F)c1nc(CCC(F)(F)F)n(CC(F)(F)F)n1 (stereo not shown) [Compound 83, 4-(5-(3,5-dichlorophenyl)-5-(trifluoromethyl)-4,5-dihydroisoxazol-3-yl)-2-methyl-N-(2,2,2-trifluoroethyl)-N-(1-(2,2,2-trifluoroethyl)-5-(3,3,3-trifluoropropyl)-1H-1,2,4-triazol-3-yl)benzamide] |  |  |  | ≥ 70 |
| Cc1cc(C2=NOC(c3cc(Cl)cc(Cl)c3)(C(F)(F)F)C2)ccc1C(=O)N(CC(F)F)c1nc(CCC(F)(F)F)n(CC(F)F)n1 (stereo not shown) [Compound 87, 4-(5-(3,5-dichlorophenyl)-5-(trifluoromethyl)-4,5-dihydroisoxazol-3-yl)-N-(2,2-difluoroethyl)-N-(1-(2,2-difluoroethyl)-5-(3,3,3-trifluoropropyl)-1H-1,2,4-triazol-3-yl)-2-methylbenzamide] |  |  |  | ≥ 70 |
| Cc1cc(C2=NOC(c3cc(Cl)c(F)c(Cl)c3)(C(F)(F)F)C2)ccc1C(=O)N(CC(F)(F)F)c1nc(CCC(F)(F)F)n(CC(F)(F)F)n1 (stereo not shown) [Compound 111, 4-(5-(3,5-dichloro-4-fluorophenyl)-5-(trifluoromethyl)-4,5-dihydroisoxazol-3-yl)-2-methyl-N-(2,2,2-trifluoroethyl)-N-(1-(2,2,2-trifluoroethyl)-5-(3,3,3-trifluoropropyl)-1H-1,2,4-triazol-3-yl)benzamide] |  |  |  | ≥ 70 |
